{
  "source": "the NIST ThermoML archive (doi:10.1016/j.tca.2005.08.036)",
  "details": "Liquid, Capillary tube (Ostwald / Ubbelohde) method",
  "note": "± gives the expanded uncertainty stated by the source.",
  "data": [
    {"compound": "O", "note": "[water]", "values": [
      {"measurement": "viscosity", "setting": "284.56 K, 100 kPa", "value": "1.257 ± 0.011", "unit": "mPa·s"},
      {"measurement": "viscosity", "setting": "284.56 K, 10000 kPa", "value": "1.249 ± 0.011", "unit": "mPa·s"},
      {"measurement": "viscosity", "setting": "284.56 K, 40000 kPa", "value": "1.231 ± 0.011", "unit": "mPa·s"},
      {"measurement": "viscosity", "setting": "304.83 K, 100 kPa", "value": "0.7654 ± 0.007", "unit": "mPa·s"},
      {"measurement": "viscosity", "setting": "304.83 K, 10000 kPa", "value": "0.7725 ± 0.0071", "unit": "mPa·s"},
      {"measurement": "viscosity", "setting": "304.83 K, 40000 kPa", "value": "0.7745 ± 0.007", "unit": "mPa·s"},
      {"measurement": "viscosity", "setting": "335.46 K, 100 kPa", "value": "0.4482 ± 0.0044", "unit": "mPa·s"},
      {"measurement": "viscosity", "setting": "335.46 K, 10000 kPa", "value": "0.4504 ± 0.0044", "unit": "mPa·s"},
      {"measurement": "viscosity", "setting": "335.46 K, 40000 kPa", "value": "0.4635 ± 0.0045", "unit": "mPa·s"},
      {"measurement": "viscosity", "setting": "368.64 K, 100 kPa", "value": "0.2938 ± 0.0032", "unit": "mPa·s"},
      {"measurement": "viscosity", "setting": "368.64 K, 10000 kPa", "value": "0.2966 ± 0.0032", "unit": "mPa·s"},
      {"measurement": "viscosity", "setting": "368.64 K, 40000 kPa", "value": "0.3086 ± 0.0032", "unit": "mPa·s"},
      {"measurement": "viscosity", "setting": "397.56 K, 10000 kPa", "value": "0.2278 ± 0.0026", "unit": "mPa·s"},
      {"measurement": "viscosity", "setting": "397.56 K, 40000 kPa", "value": "0.2358 ± 0.0027", "unit": "mPa·s"},
      {"measurement": "viscosity", "setting": "435.61 K, 10000 kPa", "value": "0.1679 ± 0.0022", "unit": "mPa·s"},
      {"measurement": "viscosity", "setting": "435.61 K, 40000 kPa", "value": "0.1745 ± 0.0022", "unit": "mPa·s"}
    ]}
  ]
}
